We go through three molecules from PMC5131266 (Scientific Reports, 2016).

One test concerns MPER-TM1. In words: Cell-lysate ELISA, MPER-TM1. The class given is binding, HIV-1. As to conditions: 293T cell lysates, 20 nM IgG or Fab, normalized to 20 nM 17/9 IgG.
The next test concerns MPER-PDGFR. In words: Cell-lysate ELISA, MPER-PDGFR. The class given is binding, HIV-1. As to conditions: 293T cell lysates, 20 nM IgG or Fab, normalized to 20 nM 17/9 IgG. A general note: ELISA stands for enzyme-linked immunosorbent assay.
In test [1] the test system is SIVs that infect chimpanzees and gorillas. As to conditions: cited from earlier work. From the text:
(§1) The 10E8 antibody achieves potent and broad HIV-1 neutralization by targeting the membrane-proximal external region of gp41 (MPER)[1][2]. […] The exceptionally high degree of conservation of the MPER sequence[4][5] justifies immunotherapeutic approaches based on the 10E8 antibody.

The subject of test [2] is simian immunodeficiency virus-HIV chimera. As to conditions: rhesus macaques; cited from earlier work.
Source text: as §1

A further test relates to HIV-1. As to conditions: cited from earlier work.
Test [3] deals with HIV-1 Env of JRCSF on pseudovirus particles (HIV-1 group M subtype B, isolate JRCSF, UniProt P20871). In words: far-Western, overlay or dot blot; dot blot: decreasing amounts of PsV spotted on nitrocellulose, probed with Fab (0.2 ug/ml) in 5% milk in PBS, 1 h, room temperature. As to conditions: one partner purified.

“10E8 IgG: broadly neutralizing anti-HIV-1 gp41 MPER antibody 10E8, IgG”: the “binding to MPER-TM1” value with MPER-TM1 is listed as “bind tightly”. Further, in the test with MPER-PDGFR, the “binding to MPER-PDGFR” value was “poor ligand”. For the same molecule, the neutralization potency result in test [1] is recorded as “nanomolar potency”. For the same molecule, the protection against infection result in test [2] is listed as “complete protection”. For the same molecule, the “mean IC50” value with HIV-1 is reported as “below 1 μg/mL”.

For the molecule “10E8 WT Fab: recombinant unmodified Fab of anti-HIV-1 gp41 MPER antibody 10E8”, the “binding to MPER-TM1” value in the test on MPER-TM1 is on record as “comparable degree of binding”. Besides, the “binding to MPER-PDGFR” value with MPER-PDGFR was “poor ligand”.

B1: 10E8 Fab (Fab, V domains shown)
VH: EVQLVESGGGLVKPGGSLRLSCSASGFDFDNAWMTWVRQPPGKGLEWVGRITGPGEGWSVDYAAPVEGRFTISRLNSINFLYLEMNNLRMEDSGLYFCARTGKYYDFWSGYPPGEEYFQDWGRGTLVTVSS
VL: SYELTQETGVSVALGRTVTITCRGDSLRSHYASWYQKKPGQAPILLFYGKNNRPSGVPDRFSGSASGNRASLTISGAQAEDDAEYYCSSRDKSGSRLSVFGGGTKLTVL
notes: also called Fab 10E8; WT
As to B1, the binding result in test [3] is “binds”.
